Where “and” joins values, the source holds several entries; their conditions need not be identical. Identical values can stand only once.

Broadly, the IC50 is the concentration that inhibits the measured activity by half. In general, inhibition refers to the share of the control response that was lost under treatment.

In one test the target is T1, HCMV polymerase (Human cytomegalovirus, UniProt P08546).
T1 construct: made in house; host or cells: recombinant baculovirus-infected SF-9 cells
T1 sequence (P08546 whole entry): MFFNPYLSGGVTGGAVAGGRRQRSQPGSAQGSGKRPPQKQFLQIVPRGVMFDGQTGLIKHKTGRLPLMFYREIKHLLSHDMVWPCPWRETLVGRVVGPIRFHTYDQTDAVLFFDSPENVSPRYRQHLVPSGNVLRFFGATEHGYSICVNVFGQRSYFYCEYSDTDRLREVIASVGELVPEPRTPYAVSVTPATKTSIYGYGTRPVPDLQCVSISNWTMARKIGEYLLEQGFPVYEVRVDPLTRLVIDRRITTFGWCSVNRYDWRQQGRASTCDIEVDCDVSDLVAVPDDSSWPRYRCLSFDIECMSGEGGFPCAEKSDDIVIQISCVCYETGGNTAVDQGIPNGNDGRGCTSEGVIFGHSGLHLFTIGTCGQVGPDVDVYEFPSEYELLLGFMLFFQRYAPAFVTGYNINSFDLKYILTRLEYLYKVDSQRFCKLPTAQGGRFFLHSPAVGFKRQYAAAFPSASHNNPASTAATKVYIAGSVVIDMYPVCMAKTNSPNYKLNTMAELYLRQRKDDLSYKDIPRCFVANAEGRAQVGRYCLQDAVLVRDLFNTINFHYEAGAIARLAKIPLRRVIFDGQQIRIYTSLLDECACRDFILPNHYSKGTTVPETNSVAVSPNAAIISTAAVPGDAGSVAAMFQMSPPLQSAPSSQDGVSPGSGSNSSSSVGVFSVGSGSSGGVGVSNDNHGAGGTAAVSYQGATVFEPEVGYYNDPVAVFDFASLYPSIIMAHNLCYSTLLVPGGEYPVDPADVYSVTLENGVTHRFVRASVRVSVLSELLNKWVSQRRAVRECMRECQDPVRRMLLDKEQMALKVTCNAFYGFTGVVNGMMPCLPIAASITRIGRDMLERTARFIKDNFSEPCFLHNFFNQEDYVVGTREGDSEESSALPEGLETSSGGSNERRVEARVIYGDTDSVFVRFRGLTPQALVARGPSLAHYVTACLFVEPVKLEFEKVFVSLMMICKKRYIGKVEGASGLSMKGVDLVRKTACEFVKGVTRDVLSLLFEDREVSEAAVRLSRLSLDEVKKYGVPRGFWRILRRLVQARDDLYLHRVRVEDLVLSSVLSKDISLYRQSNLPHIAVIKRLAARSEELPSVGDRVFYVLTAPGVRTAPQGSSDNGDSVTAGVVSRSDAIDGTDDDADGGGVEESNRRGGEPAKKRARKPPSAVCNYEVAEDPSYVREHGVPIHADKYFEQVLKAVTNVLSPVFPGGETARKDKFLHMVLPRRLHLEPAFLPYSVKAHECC
As to the kind of experiment: HCMV polymerase assay (scintillation proximity assay). The test is classed as biochemical. The following applies: Conc 1.00e−004 M; Table 2. The method, then: The HCMV polymerase assay is performed using a scintillation proximity assay (SPA) as described in several references, such as N. D. Cook, et al., Pharmaceutical Manufacturing International, pages 49-53 (1992); K. Takeuchi, Laboratory Practice, September issue (1992); U.S. Pat. No. 4,568,649 (1986); which are incorporated by reference herein. Reactions are performed in 96-well plates. The assay is conducted in 100 μl volume with 5.4 mM HEPES (pH 7.5), 11.7 mM KCl, 4.5 mM MgCl2, 0.36 mg/ml BSA, and 90 nM ^3H-dTTP. Assays are run with and without CHAPS, (3-[(3-Cholamidopropyl)-dimethylammonio]-1-propane-sulfonate) at a final concentration of 2 mM. HCMV is diluted in enzyme dilution buffer containing 50% glycerol, 250 mM NaCl, 10 mM HEPES (pH 7.5), 100 pg/ml BSA, and 0.01% sodium azide. The HCMV polymerase, which is expressed in recombinant baculovirus-infected SF-9 cells and purified according to literature procedures, is added at 10% (or 10 μl) of the final reaction volume, i.e., 100 μl. Compounds are diluted in 50% DMSO and 10 μl are added to each well. Control wells contain an equivalent concentration of DMSO. Unless noted otherwise, reactions are initiated via the addition of 6 nM biotinylated poly(dA)-oligo(dT) template/primer to reaction mixtures containing the enzyme, substrate, and compounds of interest. Plates are incubated in a 25° C. of 37° C. H2O bath and terminated via the addition of 40 μl/reaction of 0.5 M EDTA (pH 8) per well. Reactions are terminated within the time-frame during which substrate incorporation is linear and varied depending upon the enzyme and conditions used, i.e., 30 min. for HCMV polymerase. Ten μl of streptavidin-SPA beads (20 mg/ml in PBS/10% glycerol) are added following termination of the reaction. Plates are incubated 10 min. at 37° C., then equilibrated to room temperature, and counted on a Packard Topcount. Linear regressions are performed and IC50's are calculated using computer software. Results of the testing of compounds of the present invention in this assay are shown in Tables 1, 2, 5, 9, 10, 11, 13 (except for the last compound which was tested under modified conditions) and 14 below.
A general note: In a scintillation proximity assay essentially only radioactivity close to the scintillant gives light.
Turning to `Cc1ccc2c(Cl)cc(S(=O)(=O)NCc3ccc(F)cc3)c(O)c2n1` [Example 30], the “% Inhib” value is on record as 97%.

The same test, now with this note: Conc 1.30e−005 M; Table 2.
With `Cc1ccc2c(Cl)cc(S(=O)(=O)NCc3ccc(F)cc3)c(O)c2n1` [Example 30], the “% Inhib” value worked out at 73.4%.

Still in this test, the particulars now being: Conc 2.50e−005 M; Table 2.
As for `Cc1ccc2c(Cl)cc(S(=O)(=O)NCc3ccc(F)cc3)c(O)c2n1` [Example 30], the “% Inhib” value is 87.5%.

Still in this test, the particulars now being: Conc 3.13e−006 M; Table 2.
As for `Cc1ccc2c(Cl)cc(S(=O)(=O)NCc3ccc(F)cc3)c(O)c2n1` [Example 30], the “% Inhib” value is 42.6%.

Staying with this test, now noted: Conc 5.00e−005 M; Table 2.
`Cc1ccc2c(Cl)cc(S(=O)(=O)NCc3ccc(F)cc3)c(O)c2n1` [Example 30]: the “% Inhib” value is on record as 95.4%.

The test is the same for the next values; noted with them: Conc 6.25e−006 M; Table 2.
With `Cc1ccc2c(Cl)cc(S(=O)(=O)NCc3ccc(F)cc3)c(O)c2n1` [Example 30], the “% Inhib” value was determined as 59.9%.

Staying with this test, now noted: Table 5; pol type CMV; read-out: IC50.
`O=C(NCc1ccc(Cl)cc1)c1ccc2ccc(/C=C/c3ccco3)nc2c1O` [Example 57, N-[(4-Chlorophenyl)methyl]-2-[2-(2-furyl)ethenyl]-8-hydroxy-7-quinolinecarboxamide]: the IC50 was determined as 8 µM.

Still in this test, the particulars now being: Table 9; read-out: CMV pol Assay- IC50.
For the molecule `O=C(NCCC(c1ccccc1)c1ccccc1)c1ccc2cccnc2c1O`, the IC50 is under 1.5 µM.
Consider `CC(CNC(=O)c1ccc2cccnc2c1O)c1ccccc1` (stereo not drawn), for which the IC50 amounted to 14.8 µM.
On the same count and under the same terms, the value for `CC(C)(C)C1CCC(NC(=O)c2ccc3cccnc3c2O)CC1` (stereo not drawn) was 2.3 µM.
Still for that read-out and setting: the value for `CC(NC(=O)c1ccc2cccnc2c1O)c1ccc(Br)cc1` (stereo not drawn) was 2.6 µM; that for `C[C@@H](NC(=O)c1ccc2cccnc2c1O)c1ccccc1` was 24.5 µM.
Take `CCCCCCCCCNC(=O)c1ccc2cccnc2c1O`: the IC50 came to 2.2 µM.
Still for that read-out and setting: to `CCCCCCCCCCCNC(=O)c1ccc2cccnc2c1O` belongs under 3.1 µM; to `O=C(NCc1cccc(Cl)c1)c1ccc2cccnc2c1O`, 8.7 µM.
Take `O=C(NCCC1=CCCCC1)c1ccc2cccnc2c1O`: the IC50 amounted to 21.1 µM.
The same measure, in the same setting: the value for `O=C(NC1(CO)CCCC1)c1ccc2cccnc2c1O` was 6.6 µM.
As for `O=C(N[C@@H](c1ccccc1)[C@H](O)c1ccccc1)c1ccc2cccnc2c1O`, the IC50 was 2.2 µM and 4.7 µM.
In the case of `CC1CCC(NC(=O)c2ccc3cccnc3c2O)CC1` (stereo not drawn), the IC50 was found to be 23.3 µM.
Regarding `Cc1ccc(CCNC(=O)c2ccc3cccnc3c2O)cc1`, the concentration for half-maximal inhibition (IC50) was 16.8 µM.
For the molecule `O=C(NCC(O)c1ccccc1)c1ccc2cccnc2c1O` (stereo not drawn), the IC50 was found to be 7.8 µM.
Still for that read-out and setting: the value for `CC1CCCC(NC(=O)c2ccc3cccnc3c2O)C1` (stereo not drawn) was 20.6 µM.
On the same count and under the same terms, to `O=C(NCc1cccc(Cl)c1Cl)c1ccc2cccnc2c1O` belongs 14.6 µM; to `O=C(NCc1ccc(Cl)c(Cl)c1)c1ccc2cccnc2c1O`, 5.6 µM.
As to `O=C(NCc1cc(Cl)ccc1Cl)c1ccc2cccnc2c1O`, the IC50 was determined as 17 µM.
On the same count and under the same terms, the value for `O=C(NCCSCc1c(F)cccc1Cl)c1ccc2cccnc2c1O` was 9.6 µM; that for `CCOC(=O)C(Cc1c[nH]c2ccccc12)NC(=O)c1ccc2cccnc2c1O` (stereo not drawn) was 24.6 µM and 29.4 µM.
Same read-out and setting: the value for `O=C(NCCSCc1c(Cl)cccc1Cl)c1ccc2cccnc2c1O` was 8.4 µM; that for `O=C(N[C@@H](CO)C(=O)OCc1ccccc1)c1ccc2cccnc2c1O` was 11.3 µM and 9.2 µM.

The same test, now with this note: Table 10; CMV pol Assay; read-out: IC50.
In the case of `CSc1ccccc1NC(=O)c1ccc2cccnc2c1O`, the IC50 came out at 8.2 µM.
As to `O=C(Nc1ccc(Oc2ccc([N+](=O)[O-])cc2)cc1)c1ccc2cccnc2c1O`, the IC50 worked out at 3.9 µM.
For the molecule `Cc1c(NC(=O)c2ccc3cccnc3c2O)cccc1[N+](=O)[O-]`, the IC50 came to 5.5 µM.
As to `O=C(Nc1ccc(Br)cc1F)c1ccc2cccnc2c1O`, the IC50 amounted to 6.9 µM.
On the same count and under the same terms, to `O=C(Nc1ccc(Br)cn1)c1ccc2cccnc2c1O` belongs 21.6 µM; to `Cc1cc(Cl)ccc1NC(=O)c1ccc2cccnc2c1O`, 3.6 µM.
Take `O=C(Nc1ccc(Br)cc1)c1ccc2cccnc2c1O`: the IC50 was 29.7 µM.
The same measure, in the same setting: the value for `O=C(Nc1cccc2cccnc12)c1ccc2cccnc2c1O` was 10.3 µM.
On to `O=C(Nc1cc(C(F)(F)F)cc(C(F)(F)F)c1)c1ccc2cccnc2c1O`, for which the IC50 is 68.2 µM.
For the molecule `O=C(Nc1ccc2c(c1)OCO2)c1ccc2cccnc2c1O`, the IC50 turned out to be 16.4 µM.
Still for that read-out and setting: to `Cc1ccc(NC(=O)c2ccc3cccnc3c2O)c(C)c1` [drawing 223] belongs 22.4 µM; to `COc1cc(Cl)c(C)cc1NC(=O)c1ccc2cccnc2c1O`, 7.9 µM.
With `Cc1ccccc1NC(=O)c1ccc2cccnc2c1O`, the IC50 turned out to be 13.4 µM.
On the same count and under the same terms, to `O=C(Nc1cccc(F)c1)c1ccc2cccnc2c1O` belongs 16.9 µM; to `O=C(Nc1cccc(OCc2ccccc2)c1)c1ccc2cccnc2c1O`, 2.9 µM; to `Cc1cccc(NC(=O)c2ccc3cccnc3c2O)c1` [drawing 224], 12.2 µM.
On the same count and under the same terms, the value for `O=C(Nc1ccccc1I)c1ccc2cccnc2c1O` was 12.5 µM; that for `O=C(Nc1ccc(Sc2ccc([N+](=O)[O-])cc2)cc1)c1ccc2cccnc2c1O` was over 100 µM.
Take `Cc1cc(C)cc(NC(=O)c2ccc3cccnc3c2O)c1`: the IC50 amounted to 19.2 µM.
Consider `O=C(Nc1ccc(CO)cc1)c1ccc2cccnc2c1O`, for which the IC50 worked out at 3.7 µM.
Still for that read-out and setting: the value for `COc1ccc(Cl)c(NC(=O)c2ccc3cccnc3c2O)c1` was 7 µM; that for `CCc1ccccc1NC(=O)c1ccc2cccnc2c1O` was 7.3 µM; that for `O=C(Nc1cc(Cl)ccc1O)c1ccc2cccnc2c1O` was 13.8 µM.
Same read-out and setting: the value for `Cc1cccc(NC(=O)c2ccc3cccnc3c2O)c1` [drawing 284] was 7 µM; that for `O=C(Nc1cccc(I)c1)c1ccc2cccnc2c1O` was 5.9 µM.
The same measure, in the same setting: to `Cc1noc(NS(=O)(=O)c2ccc(NC(=O)c3ccc4cccnc4c3O)cc2)c1C` belongs 90 µM.

Still in this test, the particulars now being: Table 11; read-out: CMV pol Assay IC50.
Turning to `CC(C)C[C@H](Nc1nnc(NC(=O)c2ccc3cccnc3c2O)s1)C(=O)OC(C)(C)C`, the IC50 turned out to be 11.4 µM.
Same read-out and setting: the value for `CCCCNc1nnc(NC(=O)c2ccc3cccnc3c2O)s1` was 2.5 µM; that for `O=C(Nc1nnc(N[C@@H](Cc2c[nH]c3ccccc23)C(=O)O)s1)c1ccc2cccnc2c1O` was 8.5 µM; that for `COC(=O)[C@@H](Cc1ccccc1)Nc1nnc(NC(=O)c2ccc3cccnc3c2O)s1` was 9.4 µM.
Same read-out and setting: to `CC(C)(C)OC(=O)[C@H](CCCCNC(=O)OCc1ccccc1)Nc1nnc(NC(=O)c2ccc3cccnc3c2O)s1` belongs under 3.1 µM; to `CC(C)(C)OC(=O)C(Nc1nnc(NC(=O)c2ccc3cccnc3c2O)s1)c1cccc2c1OCO2` (stereo not drawn), 4.7 µM; to `O=C(Nc1nnc(NC(C(=O)O)c2cccc3c2OCO3)s1)c1ccc2cccnc2c1O` (stereo not drawn), 18.9 µM.
Same read-out and setting: the value for `O=C(Nc1nnc(NC(C(=O)O)c2ccc3c(c2)OCO3)s1)c1ccc2cccnc2c1O` (stereo not drawn) was 22.6 µM; that for `N#CC(Nc1nnc(NC(=O)c2ccc3cccnc3c2O)s1)c1ccc2c(c1)OCO2` (stereo not drawn) was 3.1 µM.
As for `CC(C)(C)OC(=O)[C@H](Cc1ccc(OC(C)(C)C)cc1)Nc1nnc(NC(=O)c2ccc3cccnc3c2O)s1`, the IC50 was found to be 4.5 µM.

The same test, now with this note: Table 13; 100 μM.
`Cc1cc(C(F)(F)F)nc2c(O)c(C(=O)NCc3ccc(Cl)cc3)ccc12` yielded an inhibition at 100 µM of 35%.

The test is the same for the next values; noted with them: Table 13; read-out: IC50.
In the case of `O=C(NCCSc1ccccc1)c1ccc2ccc(C(F)(F)F)nc2c1O`, the IC50 turned out to be 41.6 µM.
In the case of `Cc1cc(O)c2ccc(C(=O)NCc3ccc(Cl)cc3)c(O)c2n1`, the IC50 stood at 102 µM.
Regarding `O=C(NCc1ccc(Cl)cc1)c1cc([N+](=O)[O-])c2cccnc2c1O`, the IC50 stood at 2.6 µM.

The test is the same for the next values; noted with them: Table 14; 25 uM.
Consider `O=C(NCCc1ccc(F)cc1)c1ccc2cccnc2c1O`, for which the inhibition at 25 µM was 42%.
Still for that read-out and setting: to `O=C(NC(CO)c1ccccc1)c1ccc2cccnc2c1O` (stereo not drawn) belongs 39%.

Still in this test, the particulars now being: Table 14; read-out: IC50.
`CC(C)C[C@H](NC(=O)c1ccc2cccnc2c1O)C(=O)OC(C)(C)C`: the IC50 is 51 µM.
The same measure, in the same setting: the value for `CC[C@H](C)C(CO)NC(=O)c1ccc2cccnc2c1O` (stereo partly drawn) was 26 µM; that for `N#CC(NC(=O)c1ccc2cccnc2c1O)c1ccccc1` (stereo not drawn) was 54 µM; that for `O=C(NC(CO)C(O)c1ccccc1)c1ccc2cccnc2c1O` (stereo not drawn) was 14 µM.
Same read-out and setting: to `O=C(NCCOc1ccccc1)c1ccc2cccnc2c1O` belongs 29 µM; to `C[C@H](NC(=O)c1ccc2cccnc2c1O)[C@H](O)c1ccccc1`, 41 µM; to `O=C(NCc1c(F)cccc1Cl)c1ccc2cccnc2c1O`, 30 µM.

The test is the same for the next values; noted with them: pol type CMV; Table 1; read-out: CMV pol Assay IC50.
`O=C(Nc1nnc(-c2ccc(Cl)cc2)s1)c1ccc2cccnc2c1O` [Example 14, N-[5-(4-Chlorophenyl)-1,3,4-thiadiazol-2-yl]-8-hydroxy-7-quinolinecarboxamide]: the IC50 amounted to 23.4 µM.
With `O=C(NCc1ccc(Cl)cc1)c1ccc2cccnc2c1O` [Example 1, N-[(4-Chlorophenyl)methyl]-8-hydroxy-7-quinolinecarboxamide], the IC50 was determined as 10.2 µM.

The test is the same for the next values; noted with them: pol type CMV; Table 2; read-out: IC50.
Turning to `Cc1ccc2c(Cl)cc(S(=O)(=O)NCc3ccc(F)cc3)c(O)c2n1` [Example 30], the IC50 is 4.3 µM.

For the origin of these results see patent publication US6500842B1, “8-hydroxy-7-substituted quinolines as anti-viral agents” (Pharmacia & Upjohn Company, priority 1996, dated 2002).
